The source of these data is patent US20150258192A1, “COMPOSITIONS AND METHODS FOR PREVENTING OR TREATING CHRONIC LUNG ALLOGRAFT DYSFUNCTION (CLAD) AND IDIOPATHIC PULMONARY FIBROSIS (IPF)” (priority 2014, published 2015).

Experiment [1] deals with T1, human recombinant MK2 (h) (Homo sapiens, UniProt P49137).
T1 construct: purchased Millipore (IC50 Profiler Express service)
As to the kind of experiment: Radiometric IC50 Determination. The settings on record: 10-point curve; ATP within 15 μM of apparent Km. Type of experiment: biochemical. The procedure:
The IC50 value was estimated from a 10-point curve of one-half log dilutions. Peptide was supplied in dimethyl sulfoxide (DMSO). Specifically, human recombinant MK2 (h) (5-10 mU) was incubated with 50 mM sodium 3-glycerophosphate (pH=7.5), 0.1 mM EGTA, 30 μM of substrate peptide ([…]; SEQ ID NO: 21), 10 mM magnesium acetate, and 90 uM γ-^33P-ATP (final volume of 25 μL) for 40 minutes at room temperature. Then, the reaction was stopped with 3% phosphoric acid. 10 μL of this mixture was spotted onto a P30 filtermat and washed three times for five minutes with 75 mM phosphoric acid and once with methanol. Finally, the membrane was dried and a scintillation counter was used.
Specifically, in these assays, a positively charged substrate is phosphorylated with a radiolabeled phosphate group from an ATP if the kinase is not inhibited by an inhibitor peptide. The positively charged substrate then is attracted to a negatively charged filter membrane, quantified with a scintillation counter, and compared to a 100% activity control.

The next experiment relates to mesothelial cells. The settings on record: cited from earlier work.
For experiment [2], the system named is fibroblasts from human idiopathic pulmonary fibrosis (IPF) lung. As to the kind of experiment: HA production of fibroblasts. Type of experiment: cell-based.

No end group written: not given here.

T1 sequence (P49137 whole entry): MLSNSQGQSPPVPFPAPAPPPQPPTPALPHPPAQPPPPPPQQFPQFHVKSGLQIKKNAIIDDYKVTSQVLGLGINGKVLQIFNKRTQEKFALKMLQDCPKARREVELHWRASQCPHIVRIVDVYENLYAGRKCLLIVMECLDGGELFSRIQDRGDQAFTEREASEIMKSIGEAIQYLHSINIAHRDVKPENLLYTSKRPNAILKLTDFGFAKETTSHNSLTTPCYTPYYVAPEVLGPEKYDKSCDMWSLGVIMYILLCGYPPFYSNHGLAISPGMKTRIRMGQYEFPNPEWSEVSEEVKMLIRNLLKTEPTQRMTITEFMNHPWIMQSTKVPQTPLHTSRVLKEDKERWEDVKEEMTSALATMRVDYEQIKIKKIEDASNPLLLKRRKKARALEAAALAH

Take YARAAARQARAKALARQLGVAA [MMI-0100]: the IC50 in experiment [1] turned out to be 22 µM. Moreover, in the experiment with mesothelial cells, the TFG-β-induced cytokine release entry is “inhibits”. Besides, in experiment [2], the HA production entry is given as “reduced”.

By IC50 is commonly meant the concentration at which inhibition is half-maximal.
